Reference: article PMC10058894, “Bioactive C21 Steroidal Glycosides from Euphorbia kansui Promoted HepG2 Cell Apoptosis via the Degradation of ATP1A1 and Inhibited Macrophage Polarization under Co-Cultivation” (Molecules, 2023)

Tests used:
Type in all cases: cell-based
[1] = tested on: HepG2 cells; experiment: Fluorescence staining for apoptosis (Hoechst 33342, Annexin V/PI)
Experimental: (§1) HepG2 cells (4 × 10^5 cells/well) were incubated in confocal dishes with DMEM for 24 h and then treated with compounds for 48 h. Then, the cells were treated with 0.1% Triton X-100 for 10 min and washed with PBS five times. Finally, the cells were dyed with anti-ATP1A1 at 4 °C overnight. Nuclear staining with DAPI (1 μg∙mL^−1) was added for 7 min in the dark, and the cells were washed. The stained images were captured under a laser scanning confocal microscope (Nikon A1 AIR MP+, Tokyo, Japan). HepG2 cells (5 × 10^5 cells/well) were incubated in 6-well plates in complete DMEM. Cells were treated with compounds for 24 h. Then, the cells were stained with Annexin V/PI for 30 min at 4 °C in the dark, and apoptosis analysis was carried out by laser scanning confocal microscopy.

[2] = tested on: ROS in HepG2 cells; experiment: H2DCFDA staining of ROS
Source text: The occurrence of apoptosis is characterized by morphological events and the activation of apoptotic signaling pathways. Herein, we detected the apoptosis events of HepG2 cells by fluorescence staining and Western blotting. […] Apoptosis-related proteins, such as Bax, cleaved caspase 3, and cleaved caspase 8, were increased, and Bcl-2 was decreased (Figure 2B).
Figure 2 Compound 5 promoted the apoptosis of HepG2 cells. (A) Fluorescence image of cell apoptosis in HepG2 cells. The cells were double stained with Annexin V and PI. Early apoptotic cells were stained with Annexin V, and late apoptotic cells were stained with PI. (B) HepG2 cells were treated with Compound 5 (25 μmol∙L^−1) for 24 h, and the protein expression was detected by western blot. (C) Fluorescence image of ROS in HepG2 cells. (D) HepG2 cells were treated with Compound 5 (25 μmol∙L^−1) for 24 h, and autophagy-related protein expression and AKT/mTOR were detected by western blotting. Data are expressed as the mean ± standard deviation. * p < 0.05, ** p < 0.01, *** p < 0.001 vs. the control group.

[3] = tested on: HepG2 and RAW264.7 co-cultivation; experiment: Cytokine levels by ELISA in co-cultivation; conditions: 25 μmol∙L−1, 48 h
[4] = biological target: ATP1A1 (Homo sapiens, UniProt P05023); experiment: ATP1A1 level and location in HepG2 cells (western blot, fluorescence staining, lysosomal colocalization); set-up: we focused on the regulatory effect of 5 on ATP1A1 in HepG2 cells; endogenous in cells; host or cells: HepG2
Experimental: as §1
Protein samples were prepared using a RIPA lysis buffer. The concentration of the protein was analyzed using a nucleic acid and protein microanalyzer (Molecular Devices, San Jose, CA, USA). SDS–PAGE was performed to separate the proteins, which were then electrotransferred onto a PVDF membrane. The membrane was incubated with antibodies at 4 °C overnight. Next, the membrane was washed and incubated with an HRP-conjugated secondary antibody (Beyotime, BeiJing, China). Finally, signals were detected by the ECL method (Beyotime, BeiJing, China) and analyzed using ImageJ software.

C[C@H](O)[C@]1(O)CC[C@@]2(O)[C@]1(C)[C@H](OC(=O)/C=C/c1ccccc1)C[C@@H]1[C@@]3(C)CC[C@H](O[C@H]4C[C@H](O)[C@H](O)[C@@H](C)O4)CC3=CC[C@]12O [Compound 5, Cynsaccatol L]
nuclear changes (Hoechst 33342 staining) [1]: significantly induce nuclear changes
nuclear and cell membrane morphological changes (Annexin V/PI staining) ([1]; as low as 12.5 μmol∙L−1): significantly induce nuclear and cell membrane morphological changes
ROS levels [2]: significantly increased
levels of TNF-α and IFN-γ ([3]; vs C0, C1 and C2 groups): significantly upregulate
levels of IL-6 and IL-10 ([3]; vs C0 group): decreased significantly
endocytosis of ATP1A1 protein (lysosomal colocalization assay) ([4]; HepG2, 12.5 or 25 μmol∙L−1 for 48 h, 25 μmol∙L−1 for 12 h or 24 h): induce the endocytosis of the ATP1A1 protein
expression of ATP1A1 (comparison with inhibitors) ([4]; HepG2, 5 25 μmol∙L−1, digitonin 10, MK 2206 40, FR 180204 200 nmol∙L−1, western blot): decreased
green fluorescence intensity of ATP1A1 on the cell membrane ([4]; HepG2 cells, fluorescence staining): significantly reduced in a dose-dependent manner
level of ATP1A1 ([4]; HepG2 cells, western blot): significantly reduced
